What was measured:
[1] = molecular target: T1, Sodium-dependent dopamine transporter (Rattus norvegicus, UniProt P23977); experiment: Binding affinity towards dopamine transporter using [3H]- mazindol as radioligand in rat striatal membranes; format: cell membranes, Striatum, Membrane
[2] = molecular target: T1, Sodium-dependent dopamine transporter; experiment: Inhibition of high affinity uptake of [3H]dopamine into striatal nerve endings (synaptosomes); format: subcellular, Brain

T1 sequence (P23977 whole entry): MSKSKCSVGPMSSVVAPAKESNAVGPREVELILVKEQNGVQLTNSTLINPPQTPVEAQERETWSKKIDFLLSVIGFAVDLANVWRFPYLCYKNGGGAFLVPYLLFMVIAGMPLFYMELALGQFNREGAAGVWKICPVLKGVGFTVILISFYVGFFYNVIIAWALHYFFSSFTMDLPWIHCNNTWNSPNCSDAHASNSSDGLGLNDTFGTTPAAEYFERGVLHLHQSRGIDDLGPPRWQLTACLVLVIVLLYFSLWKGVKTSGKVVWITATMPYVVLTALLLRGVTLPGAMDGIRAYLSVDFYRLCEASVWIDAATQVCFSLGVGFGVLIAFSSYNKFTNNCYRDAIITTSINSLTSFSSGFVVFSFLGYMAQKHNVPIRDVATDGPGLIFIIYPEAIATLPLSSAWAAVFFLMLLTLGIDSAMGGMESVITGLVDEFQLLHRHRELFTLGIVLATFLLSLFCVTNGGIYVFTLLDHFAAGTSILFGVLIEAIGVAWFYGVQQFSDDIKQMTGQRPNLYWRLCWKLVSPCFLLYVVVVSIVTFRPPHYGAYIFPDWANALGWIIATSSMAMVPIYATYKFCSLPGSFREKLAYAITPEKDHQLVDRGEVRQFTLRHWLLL

COC(=O)[C@@H]1C2CCC(C[C@H]1OC(=O)c1ccccc1)O2 (some centres not stated)
Ki [1]: 34 µM | Ki [2]: 23 µM

COC(=O)[C@H]1C2CCC(C[C@H]1OC(=O)c1ccccc1)O2 (some centres not stated)
Ki [1]: 38 µM | Ki [2]: 35 µM

COC(=O)[C@@H]1C2CCC(C[C@@H]1OC(=O)c1ccccc1)O2 (stereo in doubt; (+))
Ki [1]: 3.1 µM | Ki [2]: 9.4 µM

COC(=O)[C@H]1C2CCC(C[C@@H]1OC(=O)c1ccccc1)O2 (stereo in doubt; (+))
Ki [1]: 29.4 µM | Ki [2]: 47.7 µM

COC(=O)[C@@H]1C2CCC(C[C@@H]1OC(=O)c1ccccc1)O2 (stereo in doubt; (-))
Ki [1]: 4.2 µM | Ki [2]: 8.5 µM

COC(=O)[C@H]1C2CCC(C[C@@H]1OC(=O)c1ccccc1)O2 (stereo in doubt; (-))
Ki [1]: 4.7 µM | Ki [2]: 6 µM

— ChEMBL document CHEMBL1131772, “Synthesis of 8-Oxa analogues of norcocaine endowed with interesting cocaine-like activity” (Bioorg Med Chem Lett, 1999)
